Assay [1] deals with Recombinant Human NF-kappaB-Inducing Kinase (NIK/MAP3K14) (Homo sapiens, UniProt Q99558). The assay is described as follows: Inhibition of auto-phosphorylation of recombinant human NIK/MAP3K14 activity (AlphaScreen). The assay is classed as biochemical. To be noted: 5 μM ATP, 1 nM NIK, average if tested more than once. An outline of the steps: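 GST-tagged NIK (1 nM) auto-phosphorylation with 5 μM ATP, 2 h at 25 °C, pH 7.5 Tris buffer, 0.7% DMSO; stopped with anti-phospho-IKK Ser176/180 antibody and read by AlphaScreen. Signal normalized to full-activity and no-enzyme/no-ATP controls; IC50 from sigmoidal fit of % inhibition vs log concentration.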
(Bead proximity is the source of the signal in Alpha formats.)

Assay [2] concerns p-IKKa levels in L363 (NIK translocated multiple myeloma) cells. The assay is described as follows: Effect of compounds on p-IKKa levels in L363 (NIK translocated multiple myeloma) cells (AlphaLISA SureFire Ultra p-IKKa Ser176/180). The assay is classed as cell-based, human. Conditions: average if tested more than once, read-out: Assay 2 IC50. Put shortly: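 L363 multiple myeloma cells, BAFF-stimulated overnight (250 ng/ml), then 6 h at 37 °C with compound (11-point 1:3 series, 0.3% DMSO) plus BAFF and 10 μM MG132. p-IKKa Ser176/180 read by AlphaLISA SureFire Ultra; IC50 from sigmoidal fit normalised to stimulated and unstimulated controls.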

[3] abbreviates: Homo sapiens, L-363, p-IKKa levels in L363 cells.

Consider 20 compounds from US20250304567A1, “PYRROLIDIONE DERIVATIVES AS INHIBITORS OF NF KAPPA B INDUCING KINASE” (priority 2022, published 2025).

A word on the IC50: it is the concentration needed to halve the response being measured.

Where two headings read alike, the source gives them in different places.

Chain of Recombinant Human NF-kappaB-Inducing Kinase (NIK/MAP3K14) (Q99558 whole entry): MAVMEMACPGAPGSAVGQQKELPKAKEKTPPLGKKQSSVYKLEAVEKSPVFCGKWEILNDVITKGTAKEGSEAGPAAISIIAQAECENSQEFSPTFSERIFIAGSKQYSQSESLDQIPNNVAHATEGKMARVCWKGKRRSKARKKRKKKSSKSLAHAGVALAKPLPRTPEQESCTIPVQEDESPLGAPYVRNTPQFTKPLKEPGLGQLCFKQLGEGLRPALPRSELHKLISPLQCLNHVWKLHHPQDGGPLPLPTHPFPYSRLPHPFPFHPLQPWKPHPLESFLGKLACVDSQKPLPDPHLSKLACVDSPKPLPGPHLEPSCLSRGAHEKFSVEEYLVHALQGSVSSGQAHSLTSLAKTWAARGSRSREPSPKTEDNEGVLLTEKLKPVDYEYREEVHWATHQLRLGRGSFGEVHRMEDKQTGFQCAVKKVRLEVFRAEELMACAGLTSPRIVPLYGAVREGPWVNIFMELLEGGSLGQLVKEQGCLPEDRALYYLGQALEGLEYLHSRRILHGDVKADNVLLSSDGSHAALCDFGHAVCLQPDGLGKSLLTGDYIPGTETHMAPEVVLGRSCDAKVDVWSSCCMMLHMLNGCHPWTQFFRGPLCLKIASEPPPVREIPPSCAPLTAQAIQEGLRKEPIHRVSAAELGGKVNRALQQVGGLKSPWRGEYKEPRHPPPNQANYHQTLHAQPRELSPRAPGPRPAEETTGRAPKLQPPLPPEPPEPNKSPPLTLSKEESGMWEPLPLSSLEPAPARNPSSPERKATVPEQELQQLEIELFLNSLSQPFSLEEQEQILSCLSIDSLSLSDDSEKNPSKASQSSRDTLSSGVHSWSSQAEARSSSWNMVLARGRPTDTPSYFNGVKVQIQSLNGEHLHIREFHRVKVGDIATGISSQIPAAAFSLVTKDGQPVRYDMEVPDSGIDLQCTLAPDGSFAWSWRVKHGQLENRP

With `Cc1cnc(Nc2ccn(C)n2)nc1-c1csc(-c2cccc([C@]3(O)CCN(C)C3=O)c2)n1` [Example 16, (R)-3-Hydroxy-1-methyl-3-(3-(4-(5-methyl-2-((1-methyl-1H-pyrazol-3-yl)amino)pyrimidin-4-yl)thiazol-2-yl)phenyl)pyrrolidin-2-one], the figures for the 50% inhibitory concentration (IC50) in assay [1] and in assay [2] (setting [3]) were 100 to 500 nM and more than 501 nM, respectively.
Take `CC(Nc1nccc(-c2csc(-c3cccc([C@]4(O)CCN(C)C4=O)c3)n2)n1)c1nc2ccccc2[nH]1` (stereo partly drawn) [Example 45, (R)-3-(3-(4-(2-(((R,S)-1-(1H-benzo[d]imidazol-2-yl)ethyl)amino)pyrimidin-4-yl)thiazol-2-yl)phenyl)-3-hydroxy-1-methylpyrrolidin-2-one]: the IC50 in assay [1] was less than 100 nM; in assay [2] (p-IKKa levels in L363 cells), more than 501 nM.
Take `Cc1cc(Nc2nccc(-c3csc(-c4cccc([C@]5(O)CCN(C)C5=O)c4)n3)n2)nn1C` [Example 49, (R)-3-(3-(4-(2-((1,5-Dimethyl-1H-pyrazol-3-yl)amino)pyrimidin-4-yl)thiazol-2-yl)phenyl)-3-hydroxy-1-methylpyrrolidin-2-one]: the results for the IC50 in assay [1] and in assay [2] (setting [3]) were less than 100 nM and 100 to 500 nM, respectively.
`C[C@H](Nc1nccc(-c2csc(-c3cccc([C@]4(O)CCN(C)C4=O)c3)n2)n1)c1cn[nH]c1` (single isomer, unassigned) [Example 294]: the IC50 was less than 100 nM in assay [1] and more than 501 nM in assay [2] (p-IKKa levels in L363 cells).
Turning to `C[C@@H](Nc1nccc(-c2csc(-c3cccc([C@]4(O)CCN(C)C4=O)c3)n2)n1)c1cncn1C` (single isomer, unassigned) [Example 134], the half-inhibitory concentration (IC50) in assay [1] and in assay [2] (setting [3]) was more than 501 nM each time.
Turning to `Cc1cc(CNc2nccc(-c3csc(-c4cccc([C@]5(O)CCN(C)C5=O)c4)n3)n2)ccn1` [Example 202], the IC50 in assay [1] is less than 100 nM; in assay [2] (setting [3]), more than 501 nM.
Turning to `CN1CC[C@@](O)(c2cccc(-c3nc(-c4ccnc(Nc5cn(C6CCC6)cn5)n4)cs3)c2)C1=O` [Example 124, (R)-3-(3-(4-(2-((1-cyclobutyl-1H-imidazol-4-yl)amino)pyrimidin-4-yl)thiazol-2-yl)phenyl)-3-hydroxy-1-methylpyrrolidin-2-one], the values for the 50% inhibitory concentration (IC50) in assay [1] and in assay [2] (setting [3]) were less than 100 nM and more than 501 nM, respectively.
The corresponding values for `CN1CC[C@@](O)(c2cccc(-c3nc(-c4ccnc(NCCCNS(C)(=O)=O)n4)cs3)c2)C1=O` [Example 231] are 100 to 500 nM and more than 501 nM.
As for `CN1CC[C@@](O)(c2cccc(-c3nc(-c4ccnc(Nc5cc(Cl)n(C)n5)n4)cs3)c2)C1=O` [Example 261, (R)-3-(3-(4-(2-((5-Chloro-1-methyl-1H-pyrazol-3-yl)amino)pyrimidin-4-yl)thiazol-2-yl)phenyl)-3-hydroxy-1-methylpyrrolidin-2-one], the IC50 in assay [1] was less than 100 nM; in assay [2] (setting [3]) it was 100 to 500 nM.
The corresponding values for `Cc1cnoc1Nc1nccc(-c2csc(-c3cccc([C@]4(O)CCN(C)C4=O)c3)n2)n1` [Example 274, (R)-3-Hydroxy-1-methyl-3-(3-(4-(2-((4-methylisoxazol-5-yl)amino)pyrimidin-4-yl)thiazol-2-yl)phenyl)pyrrolidin-2-one] are more than 501 nM and more than 501 nM.
The corresponding values for `C[C@@H](Nc1nccc(-n2ccc(-c3cccc([C@]4(O)CCN(C)C4=O)c3)n2)n1)c1cnn(C)c1` (single isomer, unassigned) [Example 94] are less than 100 nM and more than 501 nM.
Regarding `COc1nn(C)cc1Nc1nccc(-c2csc(-c3cccc([C@]4(O)CCN(C)C4=O)c3)n2)n1` [Example 104, (R)-3-hydroxy-3-(3-(4-(2-((3-methoxy-1-methyl-1H-pyrazol-4-yl)amino)pyrimidin-4-yl)thiazol-2-yl)phenyl)-1-methylpyrrolidin-2-one], the IC50 in assay [1] and in assay [2] (setting [3]) was less than 100 nM in each case.
`CN1CC[C@@](O)(c2cccc(-c3nc(-c4ccnc(NC[C@@H]5CCCO5)n4)cs3)c2)C1=O` [Example 122, (R)-3-hydroxy-1-methyl-3-(3-(4-(2-((((S)-tetrahydrofuran-2-yl)methyl)amino)pyrimidin-4-yl)thiazol-2-yl)phenyl)pyrrolidin-2-one]: the IC50 is less than 100 nM in assay [1] and more than 501 nM in assay [2] (setting [3]).
On to `Cc1nnc(Nc2nccc(-c3csc(-c4cccc([C@]5(O)CCN(C)C5=O)c4)n3)n2)o1` [Example 175], for which the IC50 in assay [1] is 100 to 500 nM; in assay [2] (setting [3]), more than 501 nM.
For `CN1CCC[C@H](Nc2nccc(-c3csc(-c4cccc([C@]5(O)CCN(C)C5=O)c4)n3)n2)C1=O` [Example 223] the same measures were more than 501 nM and more than 501 nM.
Take `CCc1cc(Nc2nccc(-c3csc(-c4cccc([C@]5(O)CCN(C)C5=O)c4)n3)n2)ncn1` [Example 70, (R)-3-(3-(4-(2-((6-ethylpyrimidin-4-yl)amino)pyrimidin-4-yl)thiazol-2-yl)phenyl)-3-hydroxy-1-methylpyrrolidin-2-one]: the half-inhibitory concentration (IC50) is less than 100 nM in assay [1] and more than 501 nM in assay [2] (setting [3]).
The corresponding values for `CN1CC[C@@](O)(c2cccc(-c3nc(-c4ccnc(NC5CCN(C6COC6)CC5)n4)cs3)c2)C1=O` [Example 228] are more than 501 nM and more than 501 nM.
For `CN1CC[C@@](O)(c2cccc(-c3ccn(-c4ccnc(NC5COC5)n4)n3)c2)C1=O` [Example 132, (R)-3-hydroxy-1-methyl-3-(3-(1-(2-(oxetan-3-ylamino)pyrimidin-4-yl)-1H-pyrazol-3-yl)phenyl)pyrrolidin-2-one], the IC50 in assay [1] is less than 100 nM; in assay [2] (setting [3]), 100 to 500 nM.
For `CN1CC[C@@](O)(c2cccc(-c3nc(-c4ccnc(Nc5cnn(C6CCC6)c5)n4)cs3)c2)C1=O` [Example 73, (R)-3-(3-(4-(2-((1-cyclobutyl-1H-pyrazol-4-yl)amino)pyrimidin-4-yl)thiazol-2-yl)phenyl)-3-hydroxy-1-methylpyrrolidin-2-one], the concentration for half-maximal inhibition (IC50) in assay [1] was less than 100 nM; in assay [2] (setting [3]), 100 to 500 nM.
For `CN1CCC(O)(c2ccc(F)c(-c3csc(-c4ccnc(Nc5ccn(C)n5)n4)n3)c2)C1=O` (single isomer, unassigned) [Example 28, 3-(4-fluoro-3-(2-(2-((1-methyl-1H-pyrazol-3-yl)amino)pyrimidin-4-yl)thiazol-4-yl)phenyl)-3-hydroxy-1-methylpyrrolidin-2-one], the IC50 in assay [1] and in assay [2] (p-IKKa levels in L363 cells) was less than 100 nM each time.
